Holding throughout (test): growth of human tumour cells (NCI), 48 h
Assay [1] deals with DU-145 prostate.
Assay [2] relates to SN12C renal.
In assay [3] the test system is K-562 leukemia.
Assay [4] concerns NCI-H226 lung.
Assay [5] concerns U251 CNS.
Assay [6] concerns OVCAR-3 ovarian.
Assay [7] has as its system NCI/ADR-RES ovarian.
The subject of assay [8] is HS 578T breast.
Assay [9] has as its system SNB-19 CNS.
Assay [10] relates to MDA-MB-435.

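Briefly, cells in 96-well plates were exposed to five compound concentrations for 48 h, and endpoints were estimated by linear interpolation. At the GI50, growth is halved. TGI is the concentration that stops growth completely.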

As for `Clc1ccc2c(c1)-c1ccccc1C1=NCCN12`, the GI50 is 2.02 µM in assay [1]; 2.41 µM in [2]; 2200 nM in [3]; 1450 nM in [4]; 1980 nM in [5]; 2300 nM in assay [6]. Further, the GI50 in assay [7] is 1.6 µM; in [8] it was 2920 nM; in [9], 2.5 µM; in assay [10] it was 2040 nM. The TGI is 4.62 µM in assay [1]; 12.6 µM in assay [2]; 7.61 µM in assay [3]; 3.53 µM in assay [4]; 7.14 µM in [5]; 6.16 µM in assay [6]. In addition, the TGI in assay [7] was determined as 4.8 µM; in assay [8], 11.8 µM; in assay [9], 9.32 µM; in [10], 5.76 µM.
Take `N=C(N)c1ccc(-c2ccc(-c3cccs3)s2)nc1`: the GI50 was 1.8 µM in assay [1]; 1.68 µM in assay [2]; 1610 nM in assay [3]; 2000 nM in [4]; 1660 nM in [5]; 234 nM in assay [6]. Besides, the GI50 is 3.11 µM in assay [7], 1550 nM in assay [8], 3.48 µM in assay [9] and 1740 nM in assay [10]. Besides, the TGI in assay [1] is 4.04 µM; in assay [2], 5.38 µM; in assay [3], 3.81 µM; in assay [4] it was 15.8 µM; in assay [5] it was 3.35 µM; in [6], 2.31 µM. Moreover, the TGI was 14.5 µM in [7], 4.66 µM in [8], 20.8 µM in assay [9] and 3.42 µM in [10].
Regarding `COc1cc(-c2oc3c(OC)c(O)c(OC)c(O)c3c(=O)c2OC)ccc1O`, the TGI in [1] is over 100 µM; in [2], over 100 µM; in assay [3] it was over 100 µM; in [4], over 100 µM; in [5] it was over 100 µM; in assay [6] it was 67.8 µM. Also, the TGI in assay [7] was over 100 µM; in assay [8] it was 40.1 µM; in [9] it was over 100 µM; in assay [10], 49.1 µM.
Take `O=C(CCCCCCC(=O)Nc1ccc2c(c1)/C(=C/c1ccc[nH]1)C(=O)N2)NO`: the GI50 was 0.969 µM in assay [1]; 2.07 µM in assay [2]; 333 nM in assay [3]; 2280 nM in assay [4]; 416 nM in assay [5]; 354 nM in assay [6]. For the same compound, the GI50 is 3.86 µM in [7], 1010 nM in [8], 0.585 µM in [9] and 332 nM in assay [10]. In addition, the TGI in assay [1] is 41.6 µM; in [2], 26.5 µM; in assay [3], over 100 µM; in assay [4] it was 12 µM; in assay [5], 2.29 µM; in assay [6], 5.51 µM. Also, the TGI in assay [7] is over 100 µM; in [8] it was over 100 µM; in assay [9], 33.2 µM; in assay [10], 4.57 µM.
Consider `OC(CNc1ccnc2cc(Cl)ccc12)CNC1CCCCC1` (stereo not given), for which the GI50 was 13.9 µM in assay [1]; 12 µM in [2]; 2070 nM in [3]; 12900 nM in assay [4]; 2140 nM in assay [5]; 15000 nM in [6]. Further, the GI50 in [7] was 18 µM; in [8] it was 4950 nM; in assay [9], 22.4 µM; in [10], 1700 nM. The TGI in assay [1] was found to be 28.2 µM; in [2], 48.4 µM; in assay [3] it was 5.17 µM; in [4] it was 34.9 µM; in [5] it was 5.37 µM; in assay [6] it was 34.7 µM. Also, the TGI in assay [7] was determined as 53.9 µM; in [8], 23.8 µM; in assay [9], 75.5 µM; in assay [10], 3.28 µM.
As to `C=C1CC[C@@H]2[C@](C)(COC(C)=O)[C@H](OC(C)=O)CC[C@@]2(C)[C@@H]1C/C=C1/C(=O)OC[C@H]1OC(C)=O`, the GI50 in assay [1] was 4.47 µM; in [2], 3.07 µM; in [3], 2630 nM; in assay [4], 2140 nM; in [5], 6090 nM; in assay [6] it was 2170 nM. For the same compound, the GI50 is 4.22 µM in [7], 12300 nM in assay [8], 10.8 µM in [9] and 2630 nM in assay [10]. Further, the TGI worked out at 14.7 µM in [1]; 13.3 µM in assay [2]; 32.1 µM in [3]; 5.42 µM in assay [4]; 19.3 µM in assay [5]; 4.21 µM in [6]. The TGI in [7] is 19.8 µM; in [8], 55.3 µM; in assay [9] it was 24.5 µM; in [10], 10.1 µM.
As to `Cc1nn(-c2nc3ccccc3[nH]2)c2c1C(c1ccc3c(c1)OCO3)CC(=O)N2` (stereo not given), the GI50 in [1] is 3.23 µM; in [2], 2.77 µM; in [3], 3580 nM; in assay [4] it was 2450 nM; in assay [5], 2140 nM; in [6], 2380 nM. For the same compound, the GI50 in assay [7] was 4.43 µM; in assay [8], 2930 nM; in assay [9], 4.45 µM; in assay [10] it was 2460 nM. In addition, the TGI is 9.12 µM in [1]; 9.77 µM in assay [2]; over 100 µM in assay [3]; 7.09 µM in assay [4]; 4.79 µM in assay [5]; 5.17 µM in assay [6]. Besides, the TGI in assay [7] is over 100 µM; in [8], 13.5 µM; in assay [9], over 100 µM; in assay [10], 6.3 µM.
For `COc1cc(/C=C/C(=O)c2c(C)n([O-])c3ccc(Cl)cc3[n+]2=O)cc(OC)c1OC`, the GI50 was 21.7 µM in assay [1]; 67.6 µM in [2]; 15200 nM in [3]; 65200 nM in assay [4]; 34400 nM in assay [5]; over 100000 nM in assay [6]. Moreover, the GI50 is 90.9 µM in assay [7], 12400 nM in assay [8], 21.2 µM in assay [9] and over 100000 nM in assay [10]. Besides, the TGI in assay [1], in assay [2], in assay [3], in [4], in assay [5] and in [6] was over 100 µM throughout. Also, the TGI in [7] was over 100 µM; in assay [8] it was 64.3 µM; in [9], 77 µM; in assay [10], over 100 µM.
As to `O=Cc1ccc(O)c2ncccc12`, the GI50 in [1] is 7.28 µM; in assay [2], 3.81 µM; in assay [3], 3290 nM; in assay [4], 4880 nM; in [5] it was 2400 nM; in assay [6], 1400 nM. In addition, the GI50 was 2.2 µM in [7], 7050 nM in assay [8], 6.03 µM in assay [9] and 3830 nM in [10]. Also, the TGI in [1] was 32.1 µM; in assay [2] it was over 100 µM; in assay [3] it was over 100 µM; in [4], over 79.1 µM; in assay [5], 23.3 µM; in [6] it was 6.85 µM. The TGI in [7] was over 29.4 µM; in assay [8] it was over 53.7 µM; in [9], over 100 µM; in assay [10], 27.8 µM.
Turning to `CC(C)C[C@@H]1NC(=O)[C@@H]2CCCN2C(=O)[C@@H]2CCCN2C(=O)[C@H](CC(C)C)NC(=O)[C@H](CO)NC(=O)[C@H](CCCCN)NC(=O)[C@H]([C@H](C)O)NC(=O)[C@@H]2CCCC[C@@H](NC1=O)C(=O)N[C@@H](Cc1ccccc1)C(=O)N1CCC[C@H]1C(=O)N[C@@H](CC(=O)O)C(=O)NCC(=O)N[C@@H](CCCN=C(N)N)C(=O)N2`, the GI50 in assay [1] is over 50 µM; in assay [2], over 50 µM; in [3], over 50000 nM; in [4], over 50000 nM; in assay [5], over 50000 nM; in [6] it was over 50000 nM. In addition, the GI50 in [7] is over 50 µM; in [8], over 50000 nM; in assay [9], over 50 µM; in assay [10] it was over 50000 nM. For the same compound, the TGI in assay [1], in assay [2], in assay [3], in [4], in assay [5] and in assay [6] was over 50 µM in each case. Further, the TGI in assay [7], in [8], in assay [9] and in assay [10] was over 50 µM throughout.
Take `COCCNC(=O)c1ccc(-c2nc3ccc4[nH]ncc4c3c3c2CCCC3)cc1`: the GI50 is 2.12 µM in assay [1]; 2.61 µM in [2]; 3860 nM in assay [3]; 2470 nM in assay [4]; 2600 nM in assay [5]; 3850 nM in [6]. The GI50 in assay [7] was 4.29 µM; in [8], 880 nM; in assay [9], 3.79 µM; in assay [10], 2830 nM. For the same compound, the TGI was over 100 µM in assay [1]; 91.7 µM in assay [2]; over 100 µM in [3]; over 100 µM in assay [4]; over 100 µM in assay [5]; 37.3 µM in [6]. Besides, the TGI was over 100 µM in assay [7], 4.68 µM in assay [8], over 100 µM in [9] and over 100 µM in assay [10].
Regarding `OCCNCCNc1c2ccccc2nc2oc3ccccc3c12`, the GI50 in [1] was 10.1 µM; in assay [2] it was 8.86 µM; in assay [3] it was 33900 nM; in [4], 20500 nM; in [5], 12500 nM; in [6], 12500 nM. Moreover, the GI50 was 14.5 µM in assay [7], 6800 nM in [8], 11.6 µM in assay [9] and 11500 nM in assay [10]. Further, the TGI in [1] is 23.5 µM; in assay [2] it was 57.7 µM; in [3] it was over 100 µM; in assay [4], 62 µM; in [5] it was 30.2 µM; in assay [6] it was 42.8 µM. Further, the TGI is 79.1 µM in assay [7], 24.1 µM in [8], 36.2 µM in assay [9] and 29.3 µM in [10].
With `CCCCCCCCCCCC[n+]1ccc(C(N)=O)cc1`, the GI50 is 4.6 µM in [1]; 3.61 µM in assay [2]; 2870 nM in assay [3]; 3430 nM in assay [4]; 1140 nM in assay [5]; 2280 nM in assay [6]. Moreover, the GI50 in assay [7] is over 100 µM; in [8], 2550 nM; in assay [9], 1.82 µM; in assay [10], 3170 nM. Moreover, the TGI was 17.2 µM in assay [1]; 12.6 µM in assay [2]; over 100 µM in assay [3]; 16.3 µM in [4]; 3.55 µM in assay [5]; 8.72 µM in assay [6]. Also, the TGI was over 100 µM in assay [7], 8.49 µM in [8], 4.34 µM in assay [9] and 14.9 µM in assay [10].
For the compound `Oc1c(N=Nc2ccccc2)c2ccccc2c2ccc3ccccc3c12`, the TGI in assay [1], in assay [2], in assay [3], in assay [4], in assay [5] and in assay [6] was over 100 µM throughout. The TGI in [7], in assay [8], in [9] and in [10] was over 100 µM in each case.
With `N#CC1=C(N)Oc2c(sc3c(F)cccc23)C1c1ccc(F)cc1` (stereo not given), the GI50 was 1.79 µM in assay [1]; 1.28 µM in assay [2]; 354 nM in [3]; 1710 nM in [4]; 569 nM in assay [5]; 363 nM in assay [6]. Besides, the GI50 in assay [7] was 0.375 µM; in [8] it was 414 nM; in assay [9] it was 0.585 µM; in assay [10], 212 nM. Further, the TGI in assay [1] was 12.9 µM; in [2] it was 15.8 µM; in assay [3], 18.4 µM; in assay [4] it was 15.8 µM; in assay [5] it was 15.3 µM; in assay [6], 1.88 µM. Further, the TGI came out at 4.36 µM in assay [7], 11.4 µM in [8], 15 µM in assay [9] and 0.631 µM in assay [10].

(Values after PubChem BioAssay (NCI).)
